# Test results reported in patent US20230026808A1, “COMPOUNDS, COMPOSITIONS, AND METHODS FOR TREATING ISCHEMIA-REPERFUSION INJURY AND/OR LUNG INJURY” (YALE UNIVERSITY, priority 2019, published 2023).
# Entries after “also recorded” stand apart in the source; their conditions may differ. Where two headings read alike, the source gives them in different places. Marks after values point to notes of the source that are not given here.
# Key:
# [1] = system: brain ischemia-reperfusion injury (IRI); test: Intraluminal middle cerebral artery (MCA) occlusion brain stroke mouse model; format: in vivo
# [2] = system: mouse neutrophils; test: ROS release assay in mouse neutrophils; format: cell-based; conditions: fMLP (1 μM)
# Procedure: (§1) Mouse bone marrow neutrophils were isolated from long bones. After lysis of red blood cells (RBCs) with ACK buffer (155 mM NH4Cl, 10 mM KHCO3 and 127 μM EDTA), bone marrow cells were separated on a discontinuous Percoll gradient composed of 81%, 62%, and 45% Percoll. Neutrophils were collected at the interphase between 81% and 62% Percoll, washed in HBSS, and used for assays.
# For measurement of extracellular ROS release, isolated neutrophils were placed in the reaction buffer (0.25% BSA in HBSS with Ca^2+ and Mg^2+, 10 mM Isoluminol, 100 u/ml HRP) and stimulated with fMLP or PMA. For measurement of total ROS production, neutrophils were incubated with the reaction buffer (0.25% BSA in HBSS with Ca^2+ and Mg^2+, 10 mM Luminol, 100 u/ml HRP), followed with stimulations. Chemiluminescence was read continuously in a plate reader (Perkin Elmer). For reconstituted ROS production system in COS-7 cells, PMA (2 μM) was used for stimulation.
# [3] = system: p47^phox phosphorylation at Ser-208; test: Western analysis of p47^phox Ser-208 phosphorylation in fMLP-stimulated neutrophils; format: cell-based; conditions: fMLP (1 μM) stimulated mouse neutrophils
# Procedure: as §1
# [4] = system: LPS-induced ALI; test: LPS-induced acute lung injury mouse model; format: in vivo
# [5] = system: lung transplantation-induced injury; test: Pilot clinical study in paired single lung transplantation recipients; format: in vivo, human
# Text: These represent all of the patients who were eligible for single LT and consented for enrollment into the study between Mar. 1, 2018 and Aug. 31, 2018. […] The baseline characteristics, surgical information, medical records during their ICU stay, as well as ventilator parameters, arterial blood gas analysis, and chest X-ray results within 5 days after LT were collected. All of the five donors were enrolled in a voluntary organ donation program and died of accident or disease.
# The chest X-ray scores were obtained in the following manner: the heart field was regarded as the center, and the lung field was divided into four quadrants. Non-opacified regions, 0 points; opacified regions limited to 1/4 lung area, 1 point; limited to 2/4 lung area, 2 points; limited to 3/4 lung area, 3 points; in all lung fields, 4 points. Scores were independently collected by a clinician and a radiologist who were blinded for the treatment, and the average was used. If the difference between the two evaluators was greater than 1 point, discussion was conducted to reach a consensus. Hypoxemia index=PaO2/FiO2, measured by arterial blood gas analysis.
# In the pilot clinical study, the linear mixed model repeated measures analysis was performed to compare the hypoxemia and X-ray scores over time between two groups accounting for both within-subject correlation and correlation of paired recipients. Time by group interaction was included in the model to examine the difference in trajectory of outcomes between two groups. Linear contrast was used to compare difference at each post-transplant day, and overall mean difference between groups as well. The analysis was conducted with SAS version 9.4 (SAS Inc., Cary, N.C.). The significance was set as p<0.05, two-sided.
# [6] = cited from earlier work; for AUC / Cmax: human
# [7] = in vivo; conditions: rat, iv; for AUC(0-inf) / Cmax: 10 mg/kg/day
# [8] = system: p38 phosphorylation; test: p38 phosphorylation in mouse neutrophils; format: cell-based
# Procedure: as §1
# [9] = 800 mg orally once daily in cancer patients; cited from earlier work
# [10] = Clinical pharmacokinetics of pazopanib; format: in vivo; conditions: human, IV 20 mg/subject, extrapolated
# [11] = in vivo; conditions: monkey, iv; for AUC(0-inf) / Cmax: 10 mg/kg/day
# [12] = system: MAP3K3; test: Western analysis of MAP3K3 protein content induced by fMLP in neutrophils; format: cell-based; conditions: mouse neutrophils
# Procedure: as §1
# [13] = drug given during ischemic phase
# [14] = given i.v. 0.5 hrs after reperfusion
# [15] = therapeutic modality, intranasally post injury induction
# [16] = IV administration 5 mg/subject (N=7)
# [17] = oral, reported with bioavailability
smiles,measurement,setting,value
"Cc1ccc(Nc2nccc(N(C)c3ccc4c(C)n(C)nc4c3)n2)cc1S(N)(=O)=O [pazopanib, 5-((4-((2,3-dimethyl-2H-indazol-6-yl)(methyl)amino)pyrimidin-2-yl)amino)-2-methylbenzenesulfonamide]",margin of safety based on AUC values,2-week rat and monkey studies,< 10 fold
same,safety margin based on Cmax,female monkeys,23 fold
same,safety margin based on Cmax,male monkeys,25 fold
same,HED for 70 kg human,"monkey, 2-week study",224 mg
same,Margin of safety,"monkey, 5 days, IV 20 minute infusion, clinical dose 20 mg/day or 0.29 mg/kg",33.1X
same,t1/2,monkeys,a few hours
same,brain IRI,[1]; 60 μg retro-orbital intravenous injection 30 min after reperfusion,reduces brain IRI
same,brain IRI,[1]; 60 μg retro-orbital intravenous injection immediately after reperfusion,fails to reduce brain IRI
same,infarct size of the brain,[1]; [13],no improvement
same,neurological score,[1]; [13],no improvement
same,infarct size,[1]; [14],less infarct size
same,neurological deficit score,[1]; [14],improved neurological deficit score
same,ROS production,[2]; WT mouse neutrophils,increases in ROS production
same,ROS production,"[2]; WT mouse neutrophils, listed as Pazopanib",increases ROS release
same,ROS production,"[2]; p47^phox-KI neutrophils, 20 nM pazopanib",failed to elevate ROS production
same,p47^phox phosphorylation at Ser-208 in neutrophils,[3],inhibit p47^phox phosphorylation at Ser-208; also recorded: inhibits phosphorylation of Ser-208 of p47^phox
same,mortality,"[4]; prophylactic, orally prior to injury",reduced
same,mortality,[4]; [15],significant reductions; also recorded: reduces mortality
same,perivascular interstitial edema,[4]; [15],significant reductions
same,"X-ray opacity score, difference treatment vs control group","[5]; first day, pazopanib 200 mg oral before surgery",0.6
same,"X-ray opacity score, difference treatment vs control group","[5]; last day, pazopanib 200 mg oral before surgery",0.7
same,pulmonary edema,[5]; lung transplantation-induced injury,significantly reduced pulmonary edema
same,"X-ray score lower than control group, on average","[5]; overall mean, pazopanib 200 mg oral before surgery",0.5 point
same,AUC,[6]; [16],20.4 µg·h/mL
same,Cmax,[6]; [16],0.848 µg/mL
same,AUC,[6]; [17],806 µg·h/mL
same,Cmax,[6]; [17],43.9 µg/mL
same,half-life (t1/2),[6]; in man,27.5 h
same,AUC(0-inf),[7]; female,276 µg·h/mL
same,Cmax,[7]; female,47 µg/mL
same,AUC(0-inf),[7]; male,278 µg·h/mL
same,Cmax,[7]; male,55 µg/mL
same,NOAEL at 2 weeks,[7],10 mg/kg/day
same,NOAEL at 14 days,[7],10 mg/kg
same,p38 phosphorylation,[8],did not affect
same,tolerability,[9],well-tolerated
same,"AUC(0-∞), assuming dose-linearity",[10],81.6^a μg·h/mL
same,"Cmax, assuming dose-linearity",[10],3.4^a μg/mL
same,AUC(0-inf),"[10]; in vivo, read-out: AUC(0-∞), assuming dose-linearity",81.6 µg·h/mL
same,Cmax,"[10]; in vivo, read-out: Cmax, assuming dose-linearity",3.4 µg/mL
same,AUC(0-inf),[11]; female,167 µg·h/mL
same,Cmax,[11]; female,80 µg/mL
same,AUC(0-inf),[11]; male,143 µg·h/mL
same,Cmax,[11]; male,85 µg/mL
same,NOAEL at 2 weeks,"[11]; NOAEL (no observed adverse effect level), monkeys, 2-week GLP IV infusion (20-minute)",10 mg/kg/day
same,NOAEL at 5 days,"[11]; NOAEL, 5 days, IV 20 minute infusion",30 mg/kg
same,NOAEL at 14 days,"[11]; NOAEL, 14 days, IV 20 minute infusion",10 mg/kg
same,increase in MAP3K3 protein content induced by fMLP,[12],abrogated the increase in MAP3K3 protein content
